Consider 11 molecules from ChEMBL document CHEMBL1201862, “PubChem BioAssay data set” (2004).

Assay in all cases: DTP human tumour cell line panel, 48 h
The subject of test [1] is SF-268.
Test [2] relates to UACC-62.
The test system of test [3] is RXF 393.
The subject of test [4] is MDA-N.
Test [5] deals with IGROV-1.
The test system of test [6] is SK-OV-3.
In test [7] the test system is SN12C.
Test [8] has as its system U-251.
The test system of test [9] is SNB-75.
Test [10] relates to SNB-19.
Test [11] deals with KM12.
In test [12] the test system is A498.
Test [13] relates to NCI-H460.
The subject of test [14] is SK-MEL-5.
Test [15] relates to M14.
The test system of test [16] is 786-0.
The test system of test [17] is MDA-MB-231.
Test [18] concerns EKVX.

Molecules are shown by their SMILES.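 Five concentrations, 48 hours, 96-well plates. GI50 = concentration required for 50% inhibition of growth.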 The source made the active and inactive calls. Rule as the data show it: active = GI50 up to about 1.1 µM and inactive = higher. A value given as a limit tells only on which side of the number the result lay.

As to `O=C(O)CC1OCC=C2CN3CCC45c6ccccc6NC4C1C2CC35` (stereo not drawn), the GI50 in [1], in [2], in test [3], in [4], in test [5] and in test [6] was > 100 µM (inactive) in each case. In addition, the GI50 is > 100 µM (inactive) in test [7]; > 100 µM (inactive) in test [8]; 77.1 µM (inactive) in [9]; > 100 µM (inactive) in test [10]; > 100 µM (inactive) in test [11]; > 100 µM (inactive) in test [12]. For the same molecule, the GI50 in [13], in test [14], in test [15], in test [16], in [17] and in [18] was > 100 µM (inactive) in each case.
Regarding `c1nc(NCCc2c[nH]cn2)c2nc[nH]c2n1`, the GI50 in [1], in [2], in [3], in [4], in [5] and in test [6] was > 100 µM (inactive) in each case. For the same molecule, the GI50 in test [7] is > 100 µM (inactive); in test [8], > 100 µM (inactive); in [9], 64.3 µM (inactive); in test [10], > 100 µM (inactive); in [11], > 100 µM (inactive); in [12] it was > 100 µM (inactive). The GI50 is > 100 µM (inactive) in [13]; > 100 µM (inactive) in test [14]; > 100 µM (inactive) in test [15]; > 100 µM (inactive) in test [16]; > 100 µM (inactive) in test [17]; 46.2 µM (inactive) in test [18].
As for `CCC1OC(=O)CC(O)C(C)C(OC2OC(C)CC(N(C)C)C2O)C(CC=O)CC(C)C(=O)/C=C/C2(C)OC2C1C` (stereo not drawn), the GI50 in [1] is 27.2 µM (inactive); in test [2], 14.1 µM (inactive); in [3] it was 17.2 µM (inactive); in test [4], 25.8 µM (inactive); in [5] it was 10.3 µM (inactive); in test [6], 27.2 µM (inactive). For the same molecule, the GI50 in test [7] was 18 µM (inactive); in test [8] it was 14.8 µM (inactive); in test [9], 19.3 µM (inactive); in test [10], 16.9 µM (inactive); in test [11], 14.4 µM (inactive); in test [12], 25.9 µM (inactive). Further, the GI50 was > 100 µM (inactive) in test [13]; 15.2 µM (inactive) in test [14]; 31 µM (inactive) in [15]; 17.2 µM (inactive) in test [16]; 28.3 µM (inactive) in test [17]; 15.6 µM (inactive) in test [18].
As for `CC1(C)OC(CP(c2ccccc2)c2ccccc2)C(CP(c2ccccc2)c2ccccc2)O1` (stereo not drawn), the GI50 in [1] was 3.81 µM (inactive); in test [2], 1.97 µM (inactive); in test [3], 0.857 µM (active); in test [4], 1.52 µM (inactive); in [5], 0.222 µM (active); in [6], 3.55 µM (inactive). In addition, the GI50 was 1.32 µM (inactive) in test [7]; 0.191 µM (active) in test [8]; 1.36 µM (inactive) in test [9]; 0.601 µM (active) in test [10]; 0.617 µM (active) in test [11]; 3.39 µM (inactive) in test [12]. Also, the concentration for 50% growth inhibition (GI50) in test [13] is 0.417 µM (active); in [14], 2.13 µM (inactive); in test [15], 1.79 µM (inactive); in test [16] it was 1.83 µM (inactive); in test [17] it was 1.22 µM (inactive); in test [18], 0.914 µM (active).
For the molecule `COC(=O)c1nn2ccc3ccccc3c2c1C(=O)OC`, the GI50 in [1] was > 100 µM (inactive); in [2], 36.6 µM (inactive); in test [3], 59.2 µM (inactive); in [4], 34.8 µM (inactive); in test [5], 88.9 µM (inactive); in test [6] it was > 100 µM (inactive). Also, the GI50 was 58.1 µM (inactive) in test [7]; > 100 µM (inactive) in test [8]; 72.8 µM (inactive) in test [9]; > 100 µM (inactive) in [10]; 58.7 µM (inactive) in [11]; 22.5 µM (inactive) in test [12]. In addition, the GI50 in test [13] is > 100 µM (inactive); in test [14], 37 µM (inactive); in [15], 33 µM (inactive); in [16] it was 75.2 µM (inactive); in test [17], 53 µM (inactive); in test [18], 2.37 µM (inactive).
With `N#Cc1c(-c2ccc([N+](=O)[O-])cc2)cc(-c2ccc(Nc3ccnc4cc(Cl)ccc34)cc2)nc1N`, the GI50 in test [1] was 14.9 µM (inactive); in test [2], 26.7 µM (inactive); in test [3] it was 17.4 µM (inactive); in test [4] it was 3.52 µM (inactive); in test [5], 3.22 µM (inactive); in test [6], 32 µM (inactive). The GI50 was 4.81 µM (inactive) in test [7]; 1.84 µM (inactive) in test [8]; 11.4 µM (inactive) in test [9]; 25.2 µM (inactive) in test [10]; 2.38 µM (inactive) in [11]; 26.2 µM (inactive) in [12]. For the same molecule, the GI50 was 7.24 µM (inactive) in test [13]; 25.9 µM (inactive) in [14]; 21.1 µM (inactive) in [15]; 0.989 µM (active) in [16]; 16.9 µM (inactive) in test [17]; 16.9 µM (inactive) in test [18].
With `NC(=S)N/N=C1\C(=O)C=C(Nc2ccc(Cl)cc2Cl)c2ccccc21`, the GI50 is 9.38 µM (inactive) in test [1]; 2.64 µM (inactive) in test [2]; 18.6 µM (inactive) in test [3]; > 100 µM (inactive) in [4]; 22.2 µM (inactive) in test [5]; 12.4 µM (inactive) in test [6]. Also, the GI50 in test [7] is > 100 µM (inactive); in test [8] it was 11 µM (inactive); in [9], 11.5 µM (inactive); in test [10] it was 25.5 µM (inactive); in test [11] it was > 100 µM (inactive); in test [12], 23.3 µM (inactive). For the same molecule, the GI50 in test [13] was 57.4 µM (inactive); in test [14], 27.4 µM (inactive); in test [15] it was 44.5 µM (inactive); in test [16], 7.85 µM (inactive); in test [17] it was 10.3 µM (inactive); in test [18] it was 22.1 µM (inactive).
Regarding `COc1cc(/C=C2\N=C(c3ccccc3)N(c3ccc4c(c3)Sc3cc(N5C(=O)/C(=C/c6cc(OC)c(OC)c(OC)c6)N=C5c5ccccc5)ccc3N4)C2=O)cc(OC)c1OC`, the GI50 in [1] was 18.4 µM (inactive); in [2] it was 16.9 µM (inactive); in test [3] it was 20.7 µM (inactive); in [4], 19.8 µM (inactive); in test [5] it was 17 µM (inactive); in [6], 21.3 µM (inactive). For the same molecule, the GI50 was 25.9 µM (inactive) in test [7]; 21 µM (inactive) in test [8]; 24.7 µM (inactive) in [9]; 21.2 µM (inactive) in test [10]; > 100 µM (inactive) in [11]; 20.7 µM (inactive) in test [12]. For the same molecule, the GI50 was 31.3 µM (inactive) in [13]; 16.5 µM (inactive) in test [14]; 31.6 µM (inactive) in test [15]; 20.9 µM (inactive) in test [16]; 25.7 µM (inactive) in test [17]; 22.8 µM (inactive) in [18].
In the case of `COc1ccc(C2c3cc4c(cc3OC(NNc3ccccc3)C2C)OCO4)cc1` (stereo not drawn), the GI50 is 20.3 µM (inactive) in test [1]; 4.92 µM (inactive) in [2]; 8.51 µM (inactive) in test [3]; 8.71 µM (inactive) in test [4]; 7.31 µM (inactive) in test [5]; > 100 µM (inactive) in test [6]. The GI50 was 11 µM (inactive) in [7]; 7.35 µM (inactive) in test [8]; 22.6 µM (inactive) in test [9]; 40.7 µM (inactive) in [10]; 2.91 µM (inactive) in test [11]; 17.2 µM (inactive) in test [12]. The GI50 was 3.57 µM (inactive) in [13]; 17.9 µM (inactive) in [14]; 6.14 µM (inactive) in test [15]; 22.1 µM (inactive) in test [16]; 23.2 µM (inactive) in [17]; 3.75 µM (inactive) in test [18].
As for `CC(=O)OC(C)(C)CCC(=O)[C@](C)(O)[C@H]1[C@H](O)C[C@@]2(C)[C@@H]3CCc4c(cc(OC5OC(CO)C(O)C(O)C5O)c(O)c4C)C3(C)C(=O)C[C@]12C` (stereo partly drawn), the GI50 in [1], in test [2], in test [3], in test [4], in test [5] and in test [6] was > 100 µM (inactive) in each case. In addition, the GI50 in test [7], in test [8], in test [9], in [10], in [11] and in [12] was > 100 µM (inactive) throughout. Besides, the GI50 in [13], in test [14], in test [15], in test [16], in test [17] and in test [18] was > 100 µM (inactive) each time.
On to `C=CC[C@]12C=C(OC)[C@@H](O)[C@](OC)(C(c3cc(OC)c4c(c3)OCO4)[C@H]1C)[C@H]2OC(C)=O` (stereo partly drawn), for which the GI50 in test [1] was 8.34 µM (inactive); in test [2], > 100 µM (inactive); in test [3], > 100 µM (inactive); in test [4] it was > 100 µM (inactive); in test [5], > 100 µM (inactive); in [6], 61.1 µM (inactive). For the same molecule, the GI50 in [7] was > 100 µM (inactive); in [8] it was > 100 µM (inactive); in test [9], 40.7 µM (inactive); in test [10], > 100 µM (inactive); in test [11], > 100 µM (inactive); in test [12] it was > 100 µM (inactive). In addition, the GI50 in test [13], in test [14], in test [15], in test [16], in test [17] and in [18] was > 100 µM (inactive) throughout.

Usually GI50 stands for the concentration that inhibits growth by half.
